The structures appear in SMILES notation. Bounds are passed on as bounds.

The test system of data set [1] is HIV strain IIIB (wild type). The data set can be described thus: Cellular anti-HIV assay in MT4 LTR-EGFP cells, strain IIIB (wild type); selectivity index versus cytotoxicity in mock-infected MT4 CMV-EGFP cells. It counts as cell-based, HIV-1. The note with it: for EC50: Human immunodeficiency virus 1, 72 h, wild type HIV strain IIIB, MT4 LTR-EGFP cells, fluorescence, three days after infection, read-out: IIIB pEC50 (converted); for IIIB pSi: selectivity index = ratio of CC50 (mock-infected MT4 CMV-EGFP cells) to EC50 (IIIB), given as p value.

Data set [2] deals with HIV strain L100I. The data set can be described thus: Cellular anti-HIV assay in MT4 LTR-EGFP cells, mutant L100I. It counts as cell-based, HIV-1. The note with it: Human immunodeficiency virus 1, read-out: L100I pEC50 (converted).
Data set [3] relates to HIV strain L100I + K103N. Briefly: Cellular anti-HIV assay in MT4 LTR-EGFP cells, mutant L100I + K103N. Format: cell-based, HIV-1. The following applies: Human immunodeficiency virus 1, 72 h, read-out: L100I + K103N pEC50 (converted).
In data set [4] the test system is HIV strain K103N. Briefly: Cellular anti-HIV assay in MT4 LTR-EGFP cells, mutant K103N. Format: cell-based, HIV-1. The following applies: Human immunodeficiency virus 1, read-out: K103N pEC50 (converted).
In data set [5] the test system is HIV strain K103N + Y181C. Briefly: Cellular anti-HIV assay in MT4 LTR-EGFP cells, mutant K103N + Y181C. Format: cell-based, HIV-1. The note with it: Human immunodeficiency virus 1, 72 h, read-out: K103N + Y181C pEC50 (converted).
Data set [6] has as its system HIV strain Y181C. The data set can be described thus: Cellular anti-HIV assay in MT4 LTR-EGFP cells, mutant Y181C. It counts as cell-based, HIV-1. The note with it: Human immunodeficiency virus 1, read-out: Y181C pEC50 (converted).
Data set [7] relates to HIV strain Y188L. The data set can be described thus: Cellular anti-HIV assay in MT4 LTR-EGFP cells, mutant Y188L. It counts as cell-based, HIV-1. The note with it: Human immunodeficiency virus 1, read-out: Y188L pEC50 (converted).
Data set [8] deals with HIV strain MDR. Briefly: Cellular anti-HIV assay in MT4 LTR-EGFP cells, MDR strain. It counts as cell-based, HIV-1. The note with it: Human immunodeficiency virus 1, read-out: MDR pEC50 (converted).

As for `Cc1cc(/C=C/C#N)cc(C)c1Nc1nc(Nc2ccc(C#N)cc2)ncc1C(=O)N1CCOCC1`, the melting point is > 250 °C.

In the case of `COc1ccccc1NC(=O)c1cnc(Nc2ccc(C#N)cc2)nc1Nc1c(C)cc(/C=C/C#N)cc1C`, the melting point was > 250 °C.

For `Cc1cc(/C=C/C#N)cc(C)c1Nc1nc(Nc2ccc(C#N)cc2)ncc1C(=O)NCC1CC1` [Compound 41], the EC50 in [1] was 5.01 nM; in data set [2], 7.94 nM; in [3], 50.1 nM; in [4] it was 3.98 nM; in data set [5], 20 nM; in data set [6], 15.8 nM. The figures for the EC50 in [7] and in data set [8] were 79.4 nM and 1580 nM, respectively. In addition, the “IIIB pSi” value in data set [1] is given as >3.70.

`Cc1cc(/C=C/C#N)cc(C)c1Nc1nc(Nc2ccc(C#N)cc2)ncc1C(=O)NCCCN(C)C` [Compound 43]: the EC50 in [1] was 12.6 nM; in [2] it was 50.1 nM; in data set [3], 126 nM; in [4] it was 10 nM; in data set [5], 79.4 nM; in [6], 25.1 nM. For the same molecule, the EC50 was 79.4 nM in data set [7] and 3160 nM in data set [8]. Moreover, the “IIIB pSi” value in data set [1] is listed as >3.30.

With `Cc1cc(/C=C/C#N)cc(C)c1Nc1nc(Nc2ccc(C#N)cc2)ncc1C(=O)NCCc1ccccn1` [Compound 44], the EC50 in data set [1] was 2 nM; in data set [2] it was 12.6 nM; in data set [3], 31.6 nM; in data set [4], 2.51 nM; in [5], 10 nM; in data set [6] it was 10 nM. Further, the results for the EC50 in data set [7] and in data set [8] were 7.94 nM and 1260 nM, respectively. Besides, the “IIIB pSi” value in [1] is >4.10.

Regarding `Cc1cc(/C=C/C#N)cc(C)c1Nc1nc(Nc2ccc(C#N)cc2)ncc1C(=O)NCCc1ccc(S(N)(=O)=O)cc1` [Compound 47], the EC50 in data set [1] was 20 nM; in [2] it was 63.1 nM; in data set [3] it was 126 nM; in data set [4], 25.1 nM; in [5], 126 nM; in data set [6] it was 50.1 nM. The EC50 was 100 nM in [7] and 501 nM in data set [8]. In data set [1], the “IIIB pSi” value came to 3.10.

Take `Cc1cc(/C=C/C#N)cc(C)c1Nc1nc(Nc2ccc(C#N)cc2)ncc1C(=O)NCCc1cccs1` [Compound 48]: the EC50 in data set [1] is 20 nM; in data set [2], 126 nM; in data set [3], 501 nM; in data set [4] it was 20 nM; in [5], 200 nM; in data set [6] it was 126 nM. Also, the EC50 in data set [7] is 316 nM; in data set [8], 10000 nM. Further, the “IIIB pSi” value in data set [1] is 3.10.

As to `Cc1cc(/C=C/C#N)cc(C)c1Nc1nc(Nc2ccc(C#N)cc2)ncc1C(=O)NCCCO` [Compound 49], the EC50 is 15.8 nM in [1]; 20 nM in data set [2]; 63.1 nM in [3]; 15.8 nM in data set [4]; 50.1 nM in [5]; 79.4 nM in data set [6]. The EC50 in data set [7] was 79.4 nM; in data set [8], 501 nM. The “IIIB pSi” value in [1] came out at 3.00.

In the case of `Cc1cc(/C=C/C#N)cc(C)c1Nc1nc(Nc2ccc(C#N)cc2)ncc1C(=O)NCCN1CCCC1` [Compound 51], the EC50 in data set [1] was 3.98 nM; in data set [2] it was 79.4 nM; in data set [3] it was 126 nM; in [4] it was 6.31 nM; in data set [5] it was 63.1 nM; in data set [6], 63.1 nM. Also, the EC50 in data set [7] was 100 nM; in data set [8], 2510 nM. In addition, the “IIIB pSi” value in [1] amounted to 3.00.

In the case of `Cc1cc(/C=C/C#N)cc(C)c1Nc1nc(Nc2ccc(C#N)cc2)ncc1C(=O)NCCO` [Compound 53], the melting point was > 250 °C. For the same molecule, in data set [1], the EC50 was 3.16 nM and the “IIIB pSi” value is on record as >3.90. Also, in data set [2], the EC50 was 5.01 nM. Also, the EC50 in [3] was 25.1 nM. In data set [4], the EC50 was 6.31 nM. Besides, the EC50 in data set [5] is 31.6 nM. Also, the EC50 in data set [6] was 20 nM. Moreover, the EC50 in data set [7] is 31.6 nM. In [8], the EC50 is 501 nM.

As to `COCCNC(=O)c1cnc(Nc2ccc(C#N)cc2)nc1Nc1c(C)cc(/C=C/C#N)cc1C` [Compound 54], the melting point is > 250 °C. In data set [1], the EC50 is 2.51 nM and the “IIIB pSi” value is on record as >4.00. The EC50 in data set [2] is 3.98 nM. In [3], the EC50 was 15.8 nM. For the same molecule, the EC50 in [4] was 2 nM. In addition, the EC50 in data set [5] was 12.6 nM. In addition, the EC50 in data set [6] is 10 nM. Moreover, in [7], the EC50 is 10 nM. Moreover, the EC50 in [8] was 1000 nM.

On to `CCN(CCO)C(=O)c1cnc(Nc2ccc(C#N)cc2)nc1Nc1c(C)cc(/C=C/C#N)cc1C` [Compound 55], for which the melting point is > 222 °C. Besides, in [1], the EC50 is 1 nM and the “IIIB pSi” value was 4.00. The EC50 in [2] is 15.8 nM. Besides, the EC50 in [3] is 79.4 nM. Also, the EC50 in [4] is 3.98 nM. Moreover, the EC50 in data set [5] is 100 nM. Also, in data set [6], the EC50 was 20 nM. Also, the EC50 in [7] was 63.1 nM. Besides, the EC50 in [8] was 2000 nM.

As for `Cc1cc(/C=C/C#N)cc(C)c1Oc1nc(Nc2ccc(C#N)cc2)ncc1C(=O)NCC1CCCO1` (centres unmarked) [Compound 59], the EC50 in data set [1] is 2.51 nM; in [2] it was 63.1 nM; in data set [3], 251 nM; in [4], 6.31 nM; in data set [5], 79.4 nM; in data set [6], 31.6 nM. Also, the EC50 in data set [7] is 251 nM; in data set [8], 3980 nM. Besides, the “IIIB pSi” value in data set [1] came out at 3.80.

For the molecule `COCCNC(=O)c1cnc(Nc2ccc(C#N)cc2)nc1Oc1c(C)cc(/C=C/C#N)cc1C` [Compound 60], the EC50 in [1] was 3.16 nM; in data set [2] it was 79.4 nM; in data set [3], 316 nM; in data set [4] it was 12.6 nM; in data set [5], 63.1 nM; in data set [6] it was 31.6 nM. The EC50 is 158 nM in [7] and 10000 nM in [8]. The “IIIB pSi” value in data set [1] is listed as 3.50.

On to `Cc1cc(/C=C/C#N)cc(C)c1Oc1nc(Nc2ccc(C#N)cc2)ncc1C(=O)NCC#N` [Compound 61], for which the EC50 in data set [1] was 3.16 nM; in data set [2] it was 20 nM; in data set [3] it was 50.1 nM; in data set [4] it was 3.98 nM; in data set [5], 25.1 nM; in [6] it was 20 nM. The EC50 in [7] is 100 nM; in [8] it was 3160 nM. In addition, in [1], the “IIIB pSi” value is reported as >3.90.

`CONC(=O)c1cnc(Nc2ccc(C#N)cc2)nc1Oc1c(C)cc(/C=C/C#N)cc1C` [Compound 62]: the EC50 in data set [1] was 1.58 nM; in data set [2], 5.01 nM; in [3], 39.8 nM; in data set [4], 2.51 nM; in data set [5], 31.6 nM; in [6], 20 nM. The EC50 was 39.8 nM in [7] and 3160 nM in data set [8]. Besides, the “IIIB pSi” value in data set [1] turned out to be 4.00.

By melting point is commonly meant the temperature of the solid-liquid transition.

(Values after patent US8933089B2, “HIV inhibiting 5-amido substituted pyrimidines” (Janssen R & D Ireland, priority 2006, dated 2015).)
